Results published in patent US20060134068A1, “Treatment of cancer by simultaneous inhibiton of BRAF and restoration or mimicry of p16INK4A activity” (Mount Sinai School of Medicine of New York University, priority 2004, published 2006).

Key:
[1] = system: mBRAF positive melanoma cells; conditions: mice, Collisson et al. 2003; cited from earlier work
[2] = system: 624Mel, WM35, A375, and Mel1363 cells; test: Preliminary chemotherapeutic treatment, daily cell counting and colony formation; assay type: cell-based; conditions: after 6-24 hr treatment, both concentrations
[3] = system: untreated, advanced, melanoma; conditions: 17 patients, treatment for a median of about 3 months; cited from earlier work
[4] = biological target: CDK4 (Homo sapiens, UniProt P11802); conditions: Kubo et al. 1999; cited from earlier work
CDK4, sequence (P11802 whole entry, species assumed): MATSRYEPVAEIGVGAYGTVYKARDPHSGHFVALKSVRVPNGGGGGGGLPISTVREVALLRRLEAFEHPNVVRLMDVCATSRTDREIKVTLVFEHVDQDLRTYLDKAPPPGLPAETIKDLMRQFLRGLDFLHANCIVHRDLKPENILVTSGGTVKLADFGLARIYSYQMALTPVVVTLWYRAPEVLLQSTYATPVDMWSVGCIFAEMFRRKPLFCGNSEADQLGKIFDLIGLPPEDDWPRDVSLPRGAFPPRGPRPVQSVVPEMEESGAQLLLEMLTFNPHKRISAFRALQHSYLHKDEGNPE
CDK4, sequence (P24385 whole entry partner, species assumed): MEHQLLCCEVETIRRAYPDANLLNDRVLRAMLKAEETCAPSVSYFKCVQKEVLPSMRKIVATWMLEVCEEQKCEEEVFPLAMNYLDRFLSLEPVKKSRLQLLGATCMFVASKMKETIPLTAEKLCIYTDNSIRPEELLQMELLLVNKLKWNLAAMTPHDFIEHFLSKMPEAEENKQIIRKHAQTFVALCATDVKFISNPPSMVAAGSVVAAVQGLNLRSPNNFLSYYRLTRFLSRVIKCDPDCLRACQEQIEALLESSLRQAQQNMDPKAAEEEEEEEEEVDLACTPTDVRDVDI

Question: For O=C(NOCC1CC1)c1ccc(F)c(F)c1Nc1ccc(I)cc1Cl [CI 1040], which pulmonary metastases [1] is on record?
Answer: The pulmonary metastases was “suppressed”.

Question: With CC(=O)O[C@H]1C(=O)[C@@]2(C)[C@H]([C@H](OC(=O)c3ccccc3)[C@]3(O)C[C@H](OC(=O)[C@H](O)[C@@H](NC(=O)c4ccccc4)c4ccccc4)C(C)=C1C3(C)C)[C@]1(OC(C)=O)CO[C@@H]1C[C@@H]2O [taxol] as the compound, how does the growth inhibition [2] read?
Answer: Its growth inhibition is “Growth inhibition was observed”.

Question: Which growth inhibition [2] does the source give for N.N.[Cl][Pt][Cl] [cisplatin] here?
Answer: Its growth inhibition is “Growth inhibition was observed”.

Question: Which clinical response [3] does the source give for CN1CC[C@H](c2c(O)cc(O)c3c(=O)cc(-c4ccccc4Cl)oc23)[C@H](O)C1 [flavopiridol] here?
Answer: Its clinical response is “no response”.

Question: What about the “inhibition of CDK4 activity, rank among the compounds” value [4] of the same compound?
Answer: The value was “most potent inhibitor”.
